Test results taken from US10590128B2, “6,7,8,9-tetrahydro-5H-pyrido[2,3-d]azepine dopamine D3 ligands” (Pfizer Inc., priority 2016, dated 2020).
pKi: −log10 of the molar value.

How the values were obtained:
[1] = molecular target: human dopamine D2 receptor (hD2R) (Homo sapiens, UniProt P14416); test: Human D2 receptor binding assay ([^3H]-Spiperone); settings: CHO cells expressing hD2R, geometric mean of 2-5 determinations unless marked b (single determination)
[2] = molecular target: human dopamine D3 receptor (hD3R) (Homo sapiens, UniProt P35462); test: Human D3 receptor binding assay ([^3H]-7-OH-DPAT); settings: CHO cells expressing hD3R, geometric mean of 2-5 determinations unless marked b (single determination), read-out: hD3 in CHO cells Ki
human dopamine D3 receptor (hD3R), sequence (P35462 whole entry): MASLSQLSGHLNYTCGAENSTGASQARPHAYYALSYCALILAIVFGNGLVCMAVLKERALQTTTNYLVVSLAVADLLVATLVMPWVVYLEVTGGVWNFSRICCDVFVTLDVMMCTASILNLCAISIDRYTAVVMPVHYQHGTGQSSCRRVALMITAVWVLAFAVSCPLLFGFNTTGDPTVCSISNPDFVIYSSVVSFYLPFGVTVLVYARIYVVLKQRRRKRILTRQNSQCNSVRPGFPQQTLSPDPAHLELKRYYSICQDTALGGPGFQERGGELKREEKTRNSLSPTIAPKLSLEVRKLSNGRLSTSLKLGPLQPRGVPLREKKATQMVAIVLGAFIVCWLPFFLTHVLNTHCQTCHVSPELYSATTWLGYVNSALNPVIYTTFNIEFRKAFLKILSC

human dopamine D2 receptor (hD2R), sequence (P14416 whole entry): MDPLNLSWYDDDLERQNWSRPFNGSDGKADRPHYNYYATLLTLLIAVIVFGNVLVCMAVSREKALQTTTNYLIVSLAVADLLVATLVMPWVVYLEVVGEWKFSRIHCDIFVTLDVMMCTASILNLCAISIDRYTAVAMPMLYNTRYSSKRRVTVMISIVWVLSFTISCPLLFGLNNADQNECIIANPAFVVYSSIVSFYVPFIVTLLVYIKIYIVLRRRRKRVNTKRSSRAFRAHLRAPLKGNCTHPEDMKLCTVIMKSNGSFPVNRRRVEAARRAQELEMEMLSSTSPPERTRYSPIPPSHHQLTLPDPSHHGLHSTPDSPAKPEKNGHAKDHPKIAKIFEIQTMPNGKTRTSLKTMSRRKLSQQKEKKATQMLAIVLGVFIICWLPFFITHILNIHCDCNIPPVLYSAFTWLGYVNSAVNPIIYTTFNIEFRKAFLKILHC

| pKi [1] | pKi [2] | SMILES |
| --- | --- | --- |
| 5.91 | 8.13 | COc1nc2c(cc1NS(=O)(=O)c1ccc([C@]3(F)C[C@H](C)C3)nc1)CCN(C)CC2 [Example 136, 6-(trans-1-fluoro-3-methylcyclobutyl)-N-(2-methoxy-7-methyl-6,7,8,9-tetrahydro-5H-pyrido[2,3-d]azepin-3-yl)pyridine-3-sulfonamide] |
| 5.48 | 7.56 | CCc1nc2c(cc1NS(=O)(=O)c1ccc([C@H]3CCCCO3)cc1)CCN(C)CC2 [Example 140, N-(2-ethyl-7-methyl-6,7,8,9-tetrahydro-5H-pyrido[2,3-d]azepin-3-yl)-4-[(2R)-tetrahydro-2H-pyran-2-yl]benzenesulfonamide] |

The next lines start with the molecule.

| SMILES | pKi [1] | pKi [2] |
| --- | --- | --- |
| CCOc1ccc(S(=O)(=O)Nc2cc3c(nc2C)CCN(CC)CC3)cc1 [Example 137, 4-Ethoxy-N-(7-ethyl-2-methyl-6,7,8,9-tetrahydro-5H-pyrido[2,3-d]azepin-3-yl)benzenesulfonamide] | < 5.38 | 6.82 |
| CCN1CCc2cc(NS(=O)(=O)c3ccc(Cl)cc3)c(C)nc2CC1 [Example 138, 4-chloro-N-(7-ethyl-2-methyl-6,7,8,9-tetrahydro-5H-pyrido[2,3-d]azepin-3-yl)benzenesulfonamide] | < 5.38 | 6.54 |
| Cc1ccc(S(=O)(=O)Nc2cc3c(nc2C(F)(F)F)CCN(C)CC3)cc1 [Example 139, 4-methyl-N-[7-methyl-2-(trifluoromethyl)-6,7,8,9-tetrahydro-5H-pyrido[2,3-d]azepin-3-yl]benzenesulfonamide] | < 5.37 | 6.15 |
